The data set can be described thus: Solid stability of compositions 1-11 and compounds 1A-11A: main component content over time under different conditions (Example 37, Table 32). The data set is classed as physicochemical. As for the experimental part:
Compositions 1-11 and compounds 1A-11A were placed at environments of −25° C., 5±3° C., 25±2° C./60±5% RH, 40±2° C./75±5% RH, 60° C. for 0 d, 5 d and 10 d (d refers to day), respectively, and changes of the main component content (the main component content of 0 day was converted to 100%) were measured, the results are shown in Table 32.

Setting [1] is: 5 ± 3° C., 0 d (0 day content converted to 100%).
The mark [2] stands for this setting: 25 ± 2° C./60 ± 5% RH, 0 d (0 day content converted to 100%).
[3] abbreviates: 40 ± 2° C./75 ± 5% RH, 0 d (0 day content converted to 100%).
The mark [4] stands for this setting: 60° C., 0 d (0 day content converted to 100%).
[5] abbreviates: −25° C., 0 d (0 day content converted to 100%).

Molecules are shown by their SMILES.

In the case of `O=C([O-])C(CF)N(CC(O)C(O)C(O)C(O)CO)C(=S)[S][Na].[Na+]` (stereo not drawn) [Compound 1A], the main component content under setting [1] is on record as 100%; the main component content (5 ± 3° C., 5 d) was found to be 99.5%; the main component content (5 ± 3° C., 10 d) was found to be 99.1%; the main component content under setting [2] is on record as 100%; the main component content (25 ± 2° C./60 ± 5% RH, 5 d) was determined as 97.3%; the main component content (25 ± 2° C./60 ± 5% RH, 10 d) worked out at 92.1%. The main component content runs as follows: under setting [3], 100%; (40 ± 2° C./75 ± 5% RH, 5 d) 83.5%; (40 ± 2° C./75 ± 5% RH, 10 d) 81.5%; under setting [4], 100%; (60° C., 5 d) 59.4%; (60° C., 10 d) 58.7%. Besides, the main component content under setting [5] worked out at 100%; the main component content (−25° C., 5 d) came to 100.2%; the main component content (−25° C., 10 d) is 100.1%.
As to `CC(C)C(C(=O)[O-])N(CC(O)C(O)C(O)C(O)CO)C(=S)[S][Na].[Na+]` (stereo not drawn) [Compound 2A], the main component content was 100% under setting [1]; 99.5% (5 ± 3° C., 5 d); 98.1% (5 ± 3° C., 10 d); 100% under setting [2]; 91.4% (25 ± 2° C./60 ± 5% RH, 5 d); 82.5% (25 ± 2° C./60 ± 5% RH, 10 d). The main component content reads like this: under setting [3], 100%; (40 ± 2° C./75 ± 5% RH, 5 d) 94.1%; (40 ± 2° C./75 ± 5% RH, 10 d) 90.1%; under setting [4], 100%; (60° C., 5 d) 49.9%; (60° C., 10 d) 48.8%. Also, the main component content is, setting by setting: under setting [5], 100%; (−25° C., 5 d) 100.2%; (−25° C., 10 d) 99.8%.
Consider `O=C([O-])C(CCSCO)N(CC(O)C(O)C(O)C(O)CO)C(=S)[S][Na].[Na+]` (stereo not drawn) [Compound 4A], for which the main component content by setting is: under setting [1], 100%; (5 ± 3° C., 5 d) 97.6%; (5 ± 3° C., 10 d) 95.3%; under setting [2], 100%; (25 ± 2° C./60 ± 5% RH, 5 d) 92.8%; (25 ± 2° C./60 ± 5% RH, 10 d) 91.7%. For the same compound, the main component content reads like this: under setting [3], 100%; (40 ± 2° C./75 ± 5% RH, 5 d) 83.4%; (40 ± 2° C./75 ± 5% RH, 10 d) 80.8%; under setting [4], 100%; (60° C., 5 d) 68.0%; (60° C., 10 d) 64.7%. Further, the main component content came out at 100% under setting [5]; 100.2% (−25° C., 5 d); 100.5% (−25° C., 10 d).
Consider `O=C([O-])CCC(C(=O)[O-])N(CC(O)C(O)C(O)C(O)CO)C(=S)[S][Na].[Na+].[Na+]` (stereo not drawn) [Compound 5A], for which the main component content by setting is: under setting [1], 100%; (5 ± 3° C., 5 d) 99.6%; (5 ± 3° C., 10 d) 98.7%; under setting [2], 100%; (25 ± 2° C./60 ± 5% RH, 5 d) 97.8%; (25 ± 2° C./60 ± 5% RH, 10 d) 95.7%. Further, the main component content is, setting by setting: under setting [3], 100%; (40 ± 2° C./75 ± 5% RH, 5 d) 97.9%; (40 ± 2° C./75 ± 5% RH, 10 d) 91.8%; under setting [4], 100%; (60° C., 5 d) 80.3%; (60° C., 10 d) 78.7%. Also, the main component content under setting [5] was 100%; the main component content (−25° C., 5 d) is reported as 100.7%; the main component content (−25° C., 10 d) was found to be 101.1%.
Take `O=C([O-])C(CC1CCCCC1)N(CC(O)C(O)C(O)C(O)CO)C(=S)[S][Na].[Na+]` (stereo not drawn) [Compound 6A]: the main component content runs as follows: under setting [1], 100%; (5 ± 3° C., 5 d) 98.8%; (5 ± 3° C., 10 d) 99.1%; under setting [2], 100%; (25 ± 2° C./60 ± 5% RH, 5 d) 93.1%; (25 ± 2° C./60 ± 5% RH, 10 d) 85.3%. Moreover, the main component content runs as follows: under setting [3], 100%; (40 ± 2° C./75 ± 5% RH, 5 d) 91.5%; (40 ± 2° C./75 ± 5% RH, 10 d) 91.0%; under setting [4], 100%; (60° C., 5 d) 60.4%; (60° C., 10 d) 57.8%. Also, the main component content is 100% under setting [5]; 100.6% (−25° C., 5 d); 99.9% (−25° C., 10 d).
Take `COc1ccc(CC(C(=O)[O-])N(CC(O)C(O)C(O)C(O)CO)C(=S)[S][Na])cc1.[Na+]` (stereo not drawn) [Compound 7A]: the main component content is on record as 100% under setting [1]; 100.0% (5 ± 3° C., 5 d); 99.1% (5 ± 3° C., 10 d); 100% under setting [2]; 99.3% (25 ± 2° C./60 ± 5% RH, 5 d); 98.0% (25 ± 2° C./60 ± 5% RH, 10 d). The same compound registered a main component content under setting [3] of 100%; a main component content (40 ± 2° C./75 ± 5% RH, 5 d) of 98.7%; a main component content (40 ± 2° C./75 ± 5% RH, 10 d) of 96.5%; a main component content under setting [4] of 100%; a main component content (60° C., 5 d) of 80.2%; a main component content (60° C., 10 d) of 80.1%. In addition, the main component content is, setting by setting: under setting [5], 100%; (−25° C., 5 d) 100.1%; (−25° C., 10 d) 100.6%.
`O=C([O-])C(Cc1cccs1)N(CC(O)C(O)C(O)C(O)CO)C(=S)[S][Na].[Na+]` (stereo not drawn) [Compound 8A]: the main component content is reported as 100% under setting [1]; 97.9% (5 ± 3° C., 5 d); 96.2% (5 ± 3° C., 10 d); 100% under setting [2]; 95.5% (25 ± 2° C./60 ± 5% RH, 5 d); 93.3% (25 ± 2° C./60 ± 5% RH, 10 d). Moreover, the main component content runs as follows: under setting [3], 100%; (40 ± 2° C./75 ± 5% RH, 5 d) 94.7%; (40 ± 2° C./75 ± 5% RH, 10 d) 89.6%; under setting [4], 100%; (60° C., 5 d) 80.4%; (60° C., 10 d) 79.7%. Also, the main component content under setting [5] was found to be 100%; the main component content (−25° C., 5 d) worked out at 101.1%; the main component content (−25° C., 10 d) is reported as 100.3%.
Regarding `O=C([O-])C(Cc1cncs1)N(CC(O)C(O)C(O)C(O)CO)C(=S)[S][Na].[Na+]` (stereo not drawn) [Compound 9A], the main component content is, setting by setting: under setting [1], 100%; (5 ± 3° C., 5 d) 97.2%; (5 ± 3° C., 10 d) 96.0%; under setting [2], 100%; (25 ± 2° C./60 ± 5% RH, 5 d) 98.9%; (25 ± 2° C./60 ± 5% RH, 10 d) 96.0%. Further, the main component content was determined as 100% under setting [3]; 92.6% (40 ± 2° C./75 ± 5% RH, 5 d); 91.5% (40 ± 2° C./75 ± 5% RH, 10 d); 100% under setting [4]; 84.5% (60° C., 5 d); 79.3% (60° C., 10 d). The main component content is, setting by setting: under setting [5], 100%; (−25° C., 5 d) 100.7%; (−25° C., 10 d) 100.5%.
`O=C([O-])C(CO)N(CC(O)C(O)C(O)C(O)CO)C(=S)[S][K].[K+]` (stereo not drawn) [Compound 10A] showed a main component content under setting [1] of 100%; a main component content (5 ± 3° C., 5 d) of 99.5%; a main component content (5 ± 3° C., 10 d) of 98.1%; a main component content under setting [2] of 100%; a main component content (25 ± 2° C./60 ± 5% RH, 5 d) of 97.0%; a main component content (25 ± 2° C./60 ± 5% RH, 10 d) of 96.1%. In addition, the main component content is, setting by setting: under setting [3], 100%; (40 ± 2° C./75 ± 5% RH, 5 d) 92.0%; (40 ± 2° C./75 ± 5% RH, 10 d) 90.3%; under setting [4], 100%; (60° C., 5 d) 82.0%; (60° C., 10 d) 79.1%. Also, the main component content worked out at 100% under setting [5]; 100.5% (−25° C., 5 d); 101.4% (−25° C., 10 d).

For the origin of these results see US20250295628A1 (priority 2022, published 2025).
